Assay results as given in ChEMBL document CHEMBL3997794, “Design and synthesis of benzodiazepine analogs as isoform-selective human lysine deacetylase inhibitors” (Eur J Med Chem, 2017).

Columns and labels:
Histone deacetylase 8 = target: T1, Histone deacetylase 8 (Homo sapiens, UniProt Q9BY41); test: Inhibition of human KDAC8 after 60 mins by fluorescence assay
T1 sequence (Q9BY41 whole entry): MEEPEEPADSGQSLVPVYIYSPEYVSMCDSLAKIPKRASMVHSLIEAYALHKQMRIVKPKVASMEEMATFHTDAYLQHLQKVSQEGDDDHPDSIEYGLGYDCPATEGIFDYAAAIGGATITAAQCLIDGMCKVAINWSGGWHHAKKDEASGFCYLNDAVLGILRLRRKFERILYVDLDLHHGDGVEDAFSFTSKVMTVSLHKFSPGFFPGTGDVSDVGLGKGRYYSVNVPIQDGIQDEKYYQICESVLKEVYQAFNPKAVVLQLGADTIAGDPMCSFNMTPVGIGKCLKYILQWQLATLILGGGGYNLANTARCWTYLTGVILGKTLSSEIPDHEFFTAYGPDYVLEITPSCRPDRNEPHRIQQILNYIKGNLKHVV

[1] = target: T2, Protein deacetylase HDAC6 (Homo sapiens, UniProt Q9UBN7); test: Inhibition of human KDAC6 using FITC-labeled histone H4 acetylated peptide as substrate after 60 mins by fluorescence assay
T2 sequence (Q9UBN7 whole entry): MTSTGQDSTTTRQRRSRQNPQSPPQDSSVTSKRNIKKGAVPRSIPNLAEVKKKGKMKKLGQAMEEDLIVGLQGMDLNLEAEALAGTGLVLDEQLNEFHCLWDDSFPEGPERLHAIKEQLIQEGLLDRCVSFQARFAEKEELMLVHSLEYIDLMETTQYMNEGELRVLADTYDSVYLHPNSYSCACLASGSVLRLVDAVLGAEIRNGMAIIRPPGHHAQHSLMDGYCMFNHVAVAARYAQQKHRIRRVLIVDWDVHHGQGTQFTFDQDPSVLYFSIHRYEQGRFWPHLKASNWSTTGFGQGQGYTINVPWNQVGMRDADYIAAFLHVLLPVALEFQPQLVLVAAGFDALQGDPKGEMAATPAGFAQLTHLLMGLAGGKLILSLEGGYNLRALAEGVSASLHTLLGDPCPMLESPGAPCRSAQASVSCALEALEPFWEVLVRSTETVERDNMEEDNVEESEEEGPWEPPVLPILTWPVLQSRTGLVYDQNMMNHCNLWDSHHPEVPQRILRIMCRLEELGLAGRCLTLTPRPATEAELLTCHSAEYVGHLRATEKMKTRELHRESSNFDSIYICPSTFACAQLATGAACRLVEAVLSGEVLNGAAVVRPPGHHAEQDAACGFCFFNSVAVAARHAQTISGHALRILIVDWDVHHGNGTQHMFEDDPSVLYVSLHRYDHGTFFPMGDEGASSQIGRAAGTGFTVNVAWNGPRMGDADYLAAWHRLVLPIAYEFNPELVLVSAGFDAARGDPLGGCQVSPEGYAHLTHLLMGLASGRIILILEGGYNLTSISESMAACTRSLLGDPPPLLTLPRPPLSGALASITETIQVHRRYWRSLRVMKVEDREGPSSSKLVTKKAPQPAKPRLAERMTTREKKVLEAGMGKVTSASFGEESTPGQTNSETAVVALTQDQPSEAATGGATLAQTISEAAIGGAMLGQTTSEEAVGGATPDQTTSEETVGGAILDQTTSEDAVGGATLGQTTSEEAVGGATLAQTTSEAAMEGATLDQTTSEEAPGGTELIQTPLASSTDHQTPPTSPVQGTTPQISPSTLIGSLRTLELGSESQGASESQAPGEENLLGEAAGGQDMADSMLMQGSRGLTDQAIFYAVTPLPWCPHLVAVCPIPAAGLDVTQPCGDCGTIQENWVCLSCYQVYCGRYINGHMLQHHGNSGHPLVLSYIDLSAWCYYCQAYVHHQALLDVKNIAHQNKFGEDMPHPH

Histone deacetylase 3 [2] = target: T3, Histone deacetylase 3 (Homo sapiens, UniProt O15379); test: Inhibition of human KDAC3 using FITC-labeled p53 acetylated peptide as substrate after 60 mins by fluorescence assay
Histone deacetylase 1 [3] = target: T4, Histone deacetylase 1 (Homo sapiens, UniProt Q13547); test: Inhibition of human KDAC1 using substrate A after 60 mins by fluorescence assay
[4] = target: T5, Histone deacetylase 8 (Homo sapiens) (UniProt Q9BY41); test: Inhibition of human KDAC8 at 30 uM after 60 mins by fluorescence assay relative to control
T5 sequence (whole entry): T1 sequence (Q9BY41 whole entry)

Histone deacetylase 3 [5] = target: T3, Histone deacetylase 3; test: Inhibition of human KDAC3 at 30 uM using FITC-labeled p53 acetylated peptide as substrate after 60 mins by fluorescence assay relative to control
Histone deacetylase 1 [6] = target: T4, Histone deacetylase 1; test: Inhibition of human KDAC1 at 30 uM using substrate A after 60 mins by fluorescence assay relative to control
[7] = target: T6, Protein deacetylase HDAC6 (Homo sapiens) (UniProt Q9UBN7); settings: at 30 µM
T6 sequence (whole entry): T2 sequence (Q9UBN7 whole entry)
Description: Inhibition of human KDAC6 at 30 uM using FITC-labeled histone H4 acetylated peptide as substrate after 60 mins by fluorescence assay relative to control

T4 sequence (Q13547 whole entry): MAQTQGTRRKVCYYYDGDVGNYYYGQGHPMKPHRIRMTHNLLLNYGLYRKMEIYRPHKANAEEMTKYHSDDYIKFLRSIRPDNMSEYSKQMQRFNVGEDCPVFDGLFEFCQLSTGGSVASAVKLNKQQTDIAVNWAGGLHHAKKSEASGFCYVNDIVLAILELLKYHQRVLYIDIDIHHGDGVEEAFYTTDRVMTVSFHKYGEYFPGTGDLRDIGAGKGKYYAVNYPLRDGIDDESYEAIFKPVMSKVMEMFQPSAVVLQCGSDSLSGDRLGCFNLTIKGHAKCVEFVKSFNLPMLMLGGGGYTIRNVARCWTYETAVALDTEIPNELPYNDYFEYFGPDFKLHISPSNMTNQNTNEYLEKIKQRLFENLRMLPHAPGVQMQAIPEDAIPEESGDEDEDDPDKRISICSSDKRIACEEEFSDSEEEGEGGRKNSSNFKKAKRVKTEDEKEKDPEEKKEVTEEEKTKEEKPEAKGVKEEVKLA
T3 sequence (O15379 whole entry): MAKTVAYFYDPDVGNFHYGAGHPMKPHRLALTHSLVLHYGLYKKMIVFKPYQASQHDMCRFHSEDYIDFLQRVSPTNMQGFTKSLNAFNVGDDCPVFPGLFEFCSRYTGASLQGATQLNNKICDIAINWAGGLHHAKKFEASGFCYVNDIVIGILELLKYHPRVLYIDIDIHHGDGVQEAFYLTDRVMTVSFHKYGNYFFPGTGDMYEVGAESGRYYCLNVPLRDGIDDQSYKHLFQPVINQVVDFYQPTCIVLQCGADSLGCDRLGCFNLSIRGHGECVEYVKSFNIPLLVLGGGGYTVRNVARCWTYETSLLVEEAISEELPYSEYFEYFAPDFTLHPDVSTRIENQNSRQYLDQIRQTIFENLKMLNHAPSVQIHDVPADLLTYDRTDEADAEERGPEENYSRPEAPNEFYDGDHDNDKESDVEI

SMILES | IC50 (Histone deacetylase 8) | IC50 [1] | IC50 (Histone deacetylase 3 [2]) | IC50 (Histone deacetylase 1 [3]) | inhibition [4] | inhibition (Histone deacetylase 3 [5]) | inhibition (Histone deacetylase 1 [6]) | inhibition [7]
CC(C)(C)OC(=O)C[C@@H]1N=C(c2ccccc2)c2ccccc2N(CCCCC(=O)NO)C1=O | 22.4 µM | 6.43 µM | 4.15 µM | 15.7 µM | 62.3% | 91.5% | 64.1% | 80.6%
CC(C)(C)OC(=O)NCCCC[C@@H]1N=C(c2ccccc2)c2ccccc2N(CCCCC(=O)O)C1=O | > 30 µM | > 30 µM | > 30 µM | > 30 µM | -2.29% | 0% | 6% | 0%
COC(=O)CCCCN1C(=O)[C@H]([C@@H](C)OCc2ccccc2)N=C(c2ccccc2)c2ccccc21 | > 30 µM | > 30 µM | > 30 µM | > 30 µM | 6.88% | 7.91% | 0.64% | 0%
COC(=O)CCCCN1C(=O)[C@H](C)N=C(c2ccccc2)c2ccccc21 | > 30 µM | > 30 µM | > 30 µM | > 30 µM | 12.7% | 4.62% | 9.4% | 8.84%
O=C(C[C@H]1N=C(c2ccccc2)c2ccccc2NC1=O)NO | > 30 µM | > 30 µM | > 30 µM | > 30 µM | 19% | 1.64% | 9.14% | 0%
CC(C)(C)OC(=O)NCCCC[C@@H]1N=C(c2ccccc2)c2ccccc2NC1=O | > 30 µM | > 30 µM | > 30 µM | > 30 µM | 0% | 0% | 2.97% | 0%
CC(C)(C)Oc1ccc(C[C@@H]2N=C(c3ccccc3)c3ccccc3NC2=O)cc1 | > 30 µM | > 30 µM | > 30 µM | > 30 µM | 0% | 0% | 4.79% | 0%
C[C@@H]1N=C(c2ccccc2)c2ccccc2N(CCCCC(=O)NO)C1=O | 24.7 µM | 2.95 µM | 1.8 µM | 12.7 µM | 53.8% | 93.8% | 68.4% | 92.7%
COC(=O)CCCCN1C(=O)[C@H](C(C)C)N=C(c2ccccc2)c2ccccc21 | > 30 µM | > 30 µM | > 30 µM | > 30 µM | 9.56% | 0% | 12.5% | 0%
C[C@@H](OCc1ccccc1)[C@@H]1N=C(c2ccccc2)c2ccccc2N(CCCCC(=O)NO)C1=O | 29.5 µM | 2.05 µM | 0.91 µM | 4.55 µM | 50.1% | 97.2% | 82.4% | 98.1%
O=C(CCCCN1C(=O)[C@H](Cc2ccc(O)cc2)N=C(c2ccccc2)c2ccccc21)NO | > 30 µM | 8.46 µM | 5.29 µM | > 30 µM | 14.9% | 86.4% | 42.9% | 78.5%
CSCC[C@@H]1N=C(c2ccccc2)c2ccccc2N(CCCCC(=O)NO)C1=O | 20.3 µM | 1.7 µM | 0.43 µM | 6.43 µM | 57.7% | 98.9% | 81.6% | 93.1%
CSCC[C@@H]1N=C(c2ccccc2)c2ccccc2N(CCCCC(=O)O)C1=O | > 30 µM | > 30 µM | > 30 µM | > 30 µM | 2.75% | 0% | 4.46% | 0%
O=C(C[C@@H]1N=C(c2ccccc2)c2ccccc2NC1=O)NC(c1ccccc1)(c1ccccc1)c1ccccc1 | > 30 µM | > 30 µM | > 30 µM | > 30 µM | 0% | 0% | 4.31% | 0%
CC(C)(C)OC(=O)n1c(C[C@@H]2N=C(c3ccccc3)c3ccccc3N(CCCCC(=O)O)C2=O)cc2ccccc21 | > 30 µM | > 30 µM | > 30 µM | > 30 µM | 23.2% | 0.79% | 11.3% | 7.4%
CSCC[C@@H]1N=C(c2ccccc2)c2ccccc2NC1=O | > 30 µM | > 30 µM | > 30 µM | > 30 µM | 9.07% | 0% | 0% | 2.62%
CC[C@H](C)[C@@H]1N=C(c2ccccc2)c2ccccc2N(CCCCC(=O)O)C1=O | > 30 µM | > 30 µM | > 30 µM | > 30 µM | 3.99% | 0% | 0% | 0%
O=C(O)C[C@H]1N=C(c2ccccc2)c2ccccc2NC1=O | > 30 µM | > 30 µM | > 30 µM | > 30 µM | 0% | 0% | 0.74% | 0%
COC(=O)CCCCN1C(=O)[C@H](CCSC)N=C(c2ccccc2)c2ccccc21 | > 30 µM | > 30 µM | > 30 µM | > 30 µM | 0% | 0% | 0% | 0%
O=C(O)CC[C@H]1N=C(c2ccccc2)c2ccccc2NC1=O | > 30 µM | > 30 µM | > 30 µM | > 30 µM | 0% | 0% | 10.2% | 0%
CC(C)(C)OC(=O)n1c(C[C@@H]2N=C(c3ccccc3)c3ccccc3N(CCCCC(=O)NO)C2=O)cc2ccccc21 | 8.39 µM | 6.92 µM | 5.21 µM | > 30 µM | 79.7% | 93.1% | 46.9% | 85%
NC(=O)CC[C@@H]1N=C(c2ccccc2)c2ccccc2N(CCCCC(=O)NO)C1=O | > 30 µM | 1.29 µM | 1.94 µM | 13.9 µM | 30.8% | 94% | 64.5% | 96%
O=C(CCCCN1C(=O)[C@H](Cc2cncn2C(c2ccccc2)(c2ccccc2)c2ccccc2)N=C(c2ccccc2)c2ccccc21)NO | > 30 µM | 4.74 µM | 2.55 µM | > 30 µM | 1.38% | 93.4% | 22.3% | 89.9%
CC(C)C[C@@H]1N=C(c2ccccc2)c2ccccc2N(CCCCC(=O)NO)C1=O | > 30 µM | 2.33 µM | 0.57 µM | 5.9 µM | 45.2% | 98.5% | 80.5% | 91.6%
